Measurements from ChEMBL document CHEMBL1136461 (Bioorg Med Chem Lett, 2003).
In brackets after ≈: the same amount, converted by molar mass.

Experiments:
Mus musculus [1] = assay: Efficacy of compound to protect the methicillin resistant Staphylococcus aureus infected murine po administration; type: functional
Mus musculus [2] = assay: Efficacy of compound to protect the methicillin resistant Staphylococcus aureus infected murine iv administration; type: functional
Streptococcus agalactiae = assay: Antibacterial activity against Streptococcus agalactiae; type: functional
Moraxella catarrhalis = assay: Antibacterial activity against Moraxella catarrhalis; type: functional
Staphylococcus aureus [3] = assay: Antibacterial activity against methicillin susceptible Staphylococcus aureus (MSSA); type: functional
Staphylococcus aureus [4] = assay: Antibacterial activity against methicillin resistant Staphylococcus aureus (MRSA); type: functional
Enterococcus sp. = assay: Antibacterial activity against Enterococcus species; type: functional
Mus musculus [5] = assay: Efficacy of compound to protect the methicillin resistant […] infected murine sc administration; type: functional
[6] = tested on: Streptococcus pyogenes (Streptococcus pyogenes); assay: Antibacterial activity against Streptococcus pyogenes
Streptococcus pneumoniae [7] = assay: Antibacterial activity against Streptococcus pneumoniae (PEN-R); type: functional
Haemophilus influenzae = assay: Antibacterial activity against […] influenzae; type: functional
Streptococcus pneumoniae [8] = assay: Antibacterial activity against Staphylococcus pneumoniae (PEN-R)

Row | Compound | ED50 (Mus musculus [1]) [mg/kg] | ED50 (Mus musculus [2]) [mg/kg] | MIC90 (Streptococcus agalactiae) [µg/mL] | MIC90 (Moraxella catarrhalis) [µg/mL] | MIC90 (Staphylococcus aureus [3]) [µg/mL] | MIC90 (Staphylococcus aureus [4]) [µg/mL] | MIC90 (Enterococcus sp.) [µg/mL] | ED50 (Mus musculus [5]) [mg/kg] | MIC90 [6] [µg/mL] | MIC90 (Streptococcus pneumoniae [7]) [µg/mL] | MIC90 (Haemophilus influenzae) [µg/mL] | MIC90 (Streptococcus pneumoniae [8]) [µg/mL]
1 | COc1cc(Cc2cnc(N)nc2N)c2c(c1OC)OC(C1CC1)C=C2 (configuration not stated) | 17 | 4.3 | 0.5 (≈ 1.41 µM) | 4 (≈ 11.3 µM) | 0.06 (≈ 0.169 µM) | 0.06 (≈ 0.169 µM) | 0.12 (≈ 0.339 µM) | 20 | 0.03 (≈ 0.0846 µM) | 4 (≈ 11.3 µM) | 0.5 (≈ 1.41 µM) | –
2 | CC(=O)NC[C@H]1CN(c2ccc(N3CCOCC3)c(F)c2)C(=O)O1 [LINEZOLID] | – | – | 2 (≈ 5.93 µM) | 8 (≈ 23.7 µM) | 8 (≈ 23.7 µM) | 8 (≈ 23.7 µM) | 4 (≈ 11.9 µM) | – | 2 (≈ 5.93 µM) | 2 (≈ 5.93 µM) | 64 (≈ 190 µM) | –
3 | COc1cc(Cc2cnc(N)nc2N)cc(OC)c1OC [TRIMETHOPRIM] | – | 15 | 128 (≈ 441 µM) | 128 (≈ 441 µM) | 16 (≈ 55.1 µM) | 8 (≈ 27.6 µM) | 8 (≈ 27.6 µM) | 60 | 64 (≈ 220 µM) | – | 1 (≈ 3.44 µM) | > 128
4 | CN[C@H](CC(C)C)C(=O)N[C@H]1C(=O)N[C@@H](CC(N)=O)C(=O)N[C@H]2C(=O)N[C@H]3C(=O)N[C@H](C(=O)N[C@H](C(=O)O)c4cc(O)cc(O)c4-c4cc3ccc4O)[C@H](O)c3ccc(c(Cl)c3)Oc3cc2cc(c3O[C@@H]2O[C@H](CO)[C@@H](O)[C@H](O)[C@H]2O[C@H]2C[C@](C)(N)[C@H](O)[C@H](C)O2)Oc2ccc(cc2Cl)[C@H]1O [VANCOMYCIN] | – | – | 0.5 (≈ 0.345 µM) | 64 (≈ 44.2 µM) | 1 (≈ 0.69 µM) | 1 (≈ 0.69 µM) | 2 (≈ 1.38 µM) | – | 1 (≈ 0.69 µM) | 1 (≈ 0.69 µM) | 128 (≈ 88.3 µM) | –
